Test results taken from US8273775B2, “Non-steroidal brassinosteroid mimetic” (priority 2006, dated 2012).

Tested on: gene expression in Col-0 seedling shoots
Assay: Microarray analysis (ATH1 Affymetrix) after BL or abrasin treatment
Assay type: in vivo, Arabidopsis
Method: FIG. 14: Clustering of gene expression profiles by QT-clust analysis. Clusters illustrating the major patterns of the data sets. Points: BIK-30: 30 μM abrasin 30 min; BL-30: 1 μM brassinolide 30 min; DMSO-30: control DMSO 30 min; BIK-120: 30 μM abrasin 120 min; BL-120: 1 μM brassinolide 120 min; DMSO-120: control DMSO 120 min.
Col-0 seeds were germinated vertically on ½ MS medium for 7 days under 16 h light/8 h dark cycles. The seedlings were overlaid with liquid ½ MS medium containing 1 μM brassinolide (BL, Fuji Chemical Industries, Ltd., Toyama, Japan), 30 μM abrasin (BIK, ChemBridge Corporation) and DMSO and treated for 30 and 120 min. The shoot parts were collected for RNA isolation. All sampling points were performed in three independent experiments. RNA was extracted using RNeasy kit (Qiagene). […] total RNA per array was used to hybridise the ATH1 Affymetrix Arabidopsis arrays according to standard procedure. The overrepresentation analyses were performed using BiNGO software (Maere et al., 2005).
We performed a microarray analysis using the Arabidopsis whole genome chip (Affymetix) to determine whether abrasin activated the expression of BR-inducible genes at transcriptional level. Wild-type Col-0 seedlings were exposed to 1 μM BL, 30 μM ABRASIN and DMSO (mock-treatment) for two time points (30 min and 120 min) and the shoot parts were collected for RNA isolation. The analysis of the variance of the normalized gene expression data took in account the variability parameters affecting the expression level: type of hormone treatment, duration of treatment and the interaction between these two.

CC(C)[C@H](C)[C@@H](O)[C@H](O)[C@@H](C)[C@H]1CC[C@H]2[C@@H]3COC(=O)[C@H]4C[C@H](O)[C@H](O)C[C@]4(C)[C@H]3CC[C@]12C [BL, brassinolide, reference compound]
Fold-change of gene AT2G42380 (bZIP transcription factor family protein) (30 min, 265877_at, Cluster 6): 0.81 | Fold-change of gene AT2G45080 (cyclin family protein) (30 min, 266124_at, Cluster 8): 0.84 | Fold-change AT1G04330 expressed protein (120 min): 1.30 | Fold-change AT1G05470 endonuclease/exonuclease/phosphatase family protein (120 min): 1.05 | Fold-change AT1G06520 Encodes a membrane associated mitochondrial localized protein (120 min): 3.11 | Fold-change AT1G06570 4-hydroxyphenylpyruvate dioxygenase (HPD) (120 min): 0.27 | Fold-change AT1G10550 xyloglucan:xyloglucosyl transferase (120 min): 2.19 | Fold-change AT1G12710 F-box family protein (120 min): 2.11 | Fold-change AT1G12750 rhomboid family protein (120 min): 0.78 | Fold-change AT1G14130 2-oxoglutarate-dependent dioxygenase (120 min): 1.31 | Fold-change AT1G14700 purple acid phosphatase (120 min): 0.59 | Fold-change AT1G16640 transcriptional factor B3 family protein (120 min): 0.95 | Fold-change AT1G17230 leucine-rich repeat family protein (120 min): 0.38 | Fold-change AT1G18020; AT1G17990 [AT1G18020, 12-oxophytodienoate reductase, (120 min): 0.50 | Fold-change AT1G19320 pathogenesis-related thaumatin family protein (120 min): 0.38 | Fold-change AT1G20350 mitochondrial import inner membrane translocase subunit (120 min): 1.08 | Fold-change AT1G21050 expressed protein (120 min): 0.22 | Fold-change AT1G21760 F-box family protein (120 min): 0.60 | Fold-change AT1G22360 UDP-glucoronosyl/UDP-glucosyl transferase family protein (120 min): 0.29 | Fold-change AT1G23080 auxin efflux carrier protein (PIN7) (120 min): 0.48 | Fold-change AT1G26800 zinc finger (C3HC4-type RING finger) family protein, (120 min): 6.09 | Fold-change AT1G27730 zinc finger (C2H2 type) family protein (120 min): 0.71 | Fold-change AT1G28130 encodes an IAA-amido synthase (120 min): 0.28 | Fold-change AT1G28190 expressed protein (120 min): 0.58 | Fold-change AT1G28480 glutaredoxin family protein (120 min): 1.38 | Fold-change AT1G31040 zinc-binding protein-related (120 min): 1.12 | Fold-change AT1G31310 hydroxyproline-rich glycoprotein family protein (120 min): 0.74 | Fold-change AT1G31770 ABC transporter family protein (120 min): 0.64 | Fold-change AT1G32190 expressed protein (120 min): 0.11 | Fold-change AT1G32690 expressed protein (120 min): 0.48 | Fold-change AT1G36940 expressed protein (120 min): 0.38 | Fold-change AT1G49780 U-box domain-containing protein (120 min): 0.28 | Fold-change AT1G53870; AT1G53890 [AT1G53870, expressed protein (120 min): 0.77 | Fold-change AT1G54050 17.4 kDa class III heat shock protein (HSP17.4-CIII) (120 min): 3.58 | Fold-change AT1G54200 expressed protein (120 min): 2.06 | Fold-change AT1G55920 serine O-acetyltransferase (120 min): 1.01 | Fold-change AT1G57560 myb family transcription factor (MYB50) (120 min): 2.45 | Fold-change AT1G59590 expressed protein (120 min): 1.03 | Fold-change AT1G59660 nucleoporin family proteinmily (120 min): 3.15 | Fold-change AT1G62300 WRKY family transcription factor (120 min): 0.21 | Fold-change AT1G63050 membrane bound O-acyl transferase (MBOAT) family protein (120 min): 0.40 | Fold-change AT1G66160 U-box domain-containing protein, (120 min): 1.22 | Fold-change AT1G66890 expressed protein (120 min): 0.34 | Fold-change AT1G68330 expressed protein (120 min): 1.74 | Fold-change AT1G68810 basic helix-loop-helix (bHLH) family protein (120 min): 0.83 | Fold-change AT1G69160 expressed protein (120 min): 0.59 | Fold-change AT1G70990 proline-rich family protein (120 min): 2.22 | Fold-change AT1G71030 Encodes a putative myb family transcription factor (120 min): 0.13 | Fold-change AT1G72060 expressed protein (120 min): 0.92 | Fold-change AT1G72180 leucine-rich repeat transmembrane protein kinase (120 min): 0.22 | Fold-change AT1G72800 nuM1-related, contains (120 min): 2.85 | Fold-change AT1G75270 dehydroascorbate reductase (120 min): 1.66 | Fold-change AT1G75500 nodulin MtN21 family protein (120 min): 0.56 | Fold-change AT1G76240 expressed protein, (120 min): 0.16 | Fold-change AT1G76410 zinc finger (C3HC4-type RING finger) (120 min): 0.43 | Fold-change AT1G79110 expressed protein (120 min): 0.77 | Fold-change AT1G79630 protein phosphatase 2C family protein (120 min): 0.37 | Fold-change AT1G80440 kelch repeat-containing F-box family protein (120 min): 2.93 | Fold-change AT2G01300 expressed protein (120 min): 4.83 | Fold-change AT2G01990 expressed protein, (120 min): 1.06 | Fold-change AT2G04240 zinc finger (C3HC4-type RING finger) family protein (120 min): 2.81 | Fold-change AT2G05540 glycine-rich protein (120 min): 0.46 | Fold-change AT2G12290; AT4G19700 [AT2G12290, expressed protein]; [AT4G19700, expressed protein] (120 min): 0.55 | Fold-change AT2G18010 auxin-responsive family protein (SAUR10) (120 min): 9.13 | Fold-change AT2G19800 expressed protein (120 min): 1.78 | Fold-change AT2G22860 phytosulfokines 2 (PSK2) (120 min): 0.44 | Fold-change AT2G23180 cytochrome P450, putative (120 min): 0.42 | Fold-change AT2G23320 WRKY family transcription factor (120 min): 0.50 | Fold-change AT2G26530 expressed protein (120 min): 0.86 | Fold-change AT2G26710 cytochrome p450 family (BAS1) (120 min): 5.42 | Fold-change AT2G28510 Dof-type zinc finger domain-containing protein (120 min): 0.51 | Fold-change AT2G29340 short-chain dehydrogenase/reductase (SDR) family protein (120 min): 1.29 | Fold-change AT2G29990 pyridine nucleotide-disulphide oxidoreductase family protein (120 min): 0.48 | Fold-change AT2G30070 potassium transporter (KUP1) (120 min): 0.38 | Fold-change AT2G31230 encodes a member of the ERF (ethylene response factor) (120 min): 2.74 | Fold-change AT2G34650 protein kinase PINOID (PID) (120 min): 3.26 | Fold-change AT2G36220 expressed protein (120 min): 2.62 | Fold-change AT2G37590 Dof-type zinc finger domain-containing protein (120 min): 1.19 | Fold-change AT2G38470 WRKY family transcription factor (120 min): 0.57 | Fold-change AT2G39710 aspartyl protease family protein (120 min): 1.00 | Fold-change AT2G40340; AT2G40350 [AT2G40340, encodes a member of the DREB subfamily A-2 of ERF/AP2 (120 min): 1.68 | Fold-change AT2G41250 haloacid dehalogenase-like hydrolase family protein (120 min): 0.44 | Fold-change AT2G41640 expressed protein (120 min): 1.43 | Fold-change AT2G42280 basic helix-loop-helix (bHLH) family protein (120 min): 0.41 | Fold-change AT2G43060 expressed protein, similar to cDNA bHLH transcription factor (120 min): 0.36 | Fold-change AT2G43280 far-red impaired responsive family protein (120 min): 0.51 | Fold-change AT2G43290 calmodulin-like protein (MSS3) (120 min): 2.99 | Fold-change AT2G44130 kelch repeat-containing F-box family protein (120 min): 6.30 | Fold-change AT2G44500 expressed protein (120 min): 2.06 | Fold-change AT2G45210 auxin-responsive protein-related (120 min): 0.21 | Fold-change AT2G45680 TCP family transcription factor (120 min): 0.82 | Fold-change AT2G46225 Encodes a subunit of the WAVE complex (120 min): 0.47 | Fold-change AT2G47440 DNAJ heat shock N-terminal domain-containing protein (120 min): 2.23 | Fold-change AT3G04210 disease resistance protein (TIR-NBS class), putative, (120 min): 1.00 | Fold-change AT3G09920 phosphatidylinositol-4-phosphate 5-kinase family protein (120 min): 0.42 | Fold-change AT3G12920 expressed protein (120 min): 0.41 | Fold-change AT3G13040 myb family transcription factor (120 min): 0.54 | Fold-change AT3G13510 expressed protein (120 min): 0.83 | Fold-change AT3G13980 expressed protein (120 min): 0.45 | Fold-change AT3G14370 protein kinase family protein (120 min): 3.50 | Fold-change AT3G14560 expressed protein (120 min): 0.50 | Fold-change AT3G16570 rapid alkalinization factor (RALF) family protein (120 min): 0.87 | Fold-change AT3G17860 expressed protein (120 min): 0.74 | Fold-change AT3G18830 polyol/cyclitol/monosaccharide-H+-symporte (120 min): 1.14 | Fold-change AT3G19380 U-box domain-containing protein (120 min): 0.27 | Fold-change AT3G23030 auxin-responsive protein/indoleacetic acid-induced protein 2 (IAA2) (120 min): 0.39 | Fold-change AT3G23550 MATE efflux family protein (120 min): 0.31 | Fold-change AT3G25710 basic helix-loop-helix (bHLH) family protein (120 min): 0.53 | Fold-change AT3G25900 homocysteine S-methyltransferase 1 (HMT-1) (120 min): 2.22 | Fold-change AT3G26910 hydroxyproline-rich glycoprotein family protein (120 min): 0.60 | Fold-change AT3G30180 cytochrome p450 enzyme (120 min): 0.07 | Fold-change AT3G46880 expressed protein, (120 min): 0.60 | Fold-change AT3G47800 aldose 1-epimerase family protein (120 min): 0.26 | Fold-change AT3G48970 copper-binding family protein (120 min): 0.59 | Fold-change AT3G49810 U-box domain-containing protein (120 min): 0.56 | Fold-change AT3G50650 scarecrow-like transcription factor 7 (SCL7) (120 min): 1.82 | Fold-change AT3G50660 steroid 22-alpha-hydroxylase (CYP90B1) (DWF4) (120 min): 0.02 | Fold-change AT3G50750 brassinosteroid signalling positive regulator-related (BEH1) (120 min): 0.35 | Fold-change AT3G52490 heat shock protein-related (120 min): 1.08 | Fold-change AT3G53810 lectin protein kinase (120 min): 1.19 | Fold-change AT3G54950 patatin-related, (120 min): 0.39 | Fold-change AT3G55120 chalcone-flavanone isomerase (120 min): 0.68 | Fold-change AT3G55150 exocyst subunit EXO70 family protein (120 min): 0.13 | Fold-change AT3G55840 expressed protein (120 min): 7.41 | Fold-change AT3G61460 zinc finger (C3HC4-type RING finger) family protein (BRH1) (120 min): 0.43 | Fold-change AT3G63300 expressed protein (120 min): 1.13 | Fold-change AT4G01680 myb family transcription factor (MYB55) (120 min): 0.14 | Fold-change AT4G02410 lectin protein kinase family protein (120 min): 0.59 | Fold-change AT4G08040 1-aminocyclopropane-1-carboxylate synthase, putative (120 min): 0.02 | Fold-change AT4G09460 myb family transcription factor (120 min): 2.76 | Fold-change AT4G12390 invertase/pectin methylesterase inhibitor family protein (120 min): 0.66 | Fold-change AT4G12410 auxin-responsive family protein (120 min): 0.44 | Fold-change AT4G14130 xyloglucan:xyloglucosyl transferase (120 min): 0.08 | Fold-change AT4G15975 zinc finger (C3HC4-type RING finger) family protein (120 min): 1.05 | Fold-change AT4G16146 expressed protein (120 min): 0.55 | Fold-change AT4G16563 aspartyl protease family protein (120 min): 2.89 | Fold-change AT4G16670 expressed protein (120 min): 0.35
